The source made the active and inactive calls. The calls are words filed in the database; no cut-off is given here.
Tests used:
Mus musculus [1] = assay: Antidiabetic activity in diet-induced obese C57BL/6J mouse assessed as increase in insulin tolerance at 15 to 150 mg/kg, po qd for 4 weeks by insulin tolerance test relative to control; assay type: functional, organism-based
Cytochrome P450 2C19 = Cytochrome P450 2C19 (Homo sapiens, UniProt P33261); assay: Inhibition of CYP2C19 (unknown origin); assay type: ADME
Cytochrome P450 1A2 = molecular target: T1, Cytochrome P450 1A2 (Homo sapiens, UniProt P05177); assay: Inhibition of CYP1A2 (unknown origin); assay type: ADME
T1 sequence (P05177 whole entry): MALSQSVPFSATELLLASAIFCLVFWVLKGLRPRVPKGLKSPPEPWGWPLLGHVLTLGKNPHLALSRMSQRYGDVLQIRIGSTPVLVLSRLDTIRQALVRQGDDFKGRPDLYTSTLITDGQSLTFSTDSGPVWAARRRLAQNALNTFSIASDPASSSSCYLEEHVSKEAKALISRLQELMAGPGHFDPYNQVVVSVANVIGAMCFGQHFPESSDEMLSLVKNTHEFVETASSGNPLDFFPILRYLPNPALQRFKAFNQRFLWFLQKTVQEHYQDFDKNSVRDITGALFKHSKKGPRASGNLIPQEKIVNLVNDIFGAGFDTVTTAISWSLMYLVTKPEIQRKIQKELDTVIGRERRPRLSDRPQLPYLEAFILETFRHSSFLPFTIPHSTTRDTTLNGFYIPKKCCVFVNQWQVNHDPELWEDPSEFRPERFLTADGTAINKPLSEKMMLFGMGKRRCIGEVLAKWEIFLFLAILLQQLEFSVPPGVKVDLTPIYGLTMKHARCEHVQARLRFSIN

[2] = Plasma concentration in Wistar rat at 10 mg/kg, po after 4 hrs by LC-MS/MS analysis; assay type: ADME, organism-based; design: dose 10 mg/kg, route oral
[3] = Drug metabolism in mouse liver microsomes; assay type: ADME, Microsome
Cytochrome P450 2C9 = Cytochrome P450 2C9 (Homo sapiens, UniProt P11712); assay: Inhibition of CYP2C9 (unknown origin); assay type: ADME
Mus musculus [4] = assay: Upregulation of long chain acyl CoA dehydrogenase gene expression in C57BL/6J mouse muscles at 15 to 150 mg/kg, po; assay type: functional, organism-based; details: Muscle tissue
L6 [5] = assay: Induction of AMPK phosphorylation in rat L6 cells by Western blotting analysis; assay type: cell-based
[6] = AUC (0 to infinity) in Wistar rat at 10 mg/kg, po by LC-MS/MS analysis; assay type: ADME, organism-based; design: time infinity, dose 10 mg/kg, route oral; details: plasma
Mus musculus [7] = assay: Antidiabetic activity in diet-induced obese C57BL/6J mouse assessed as reduction in plasma triglyceride at 50 mg/kg, po qd for 4 weeks (reference value: 0.62 +/- 0.02 mM); assay type: functional
[8] = AUC (0 to 24 hrs) in Wistar rat at 10 mg/kg, po by LC-MS/MS analysis; assay type: ADME, organism-based; design: time < 24 hr, dose 10 mg/kg, route oral; details: plasma
[9] = molecular target: Serine/threonine-protein kinase MARK2 (Homo sapiens) (UniProt Q7KZI7); assay: Activity at MARK2 (unknown origin)
[10] = molecular target: T2, Aurora kinase A (Homo sapiens) (UniProt O14965); assay: Activity at Aurora A (unknown origin)
T2 sequence (whole entry): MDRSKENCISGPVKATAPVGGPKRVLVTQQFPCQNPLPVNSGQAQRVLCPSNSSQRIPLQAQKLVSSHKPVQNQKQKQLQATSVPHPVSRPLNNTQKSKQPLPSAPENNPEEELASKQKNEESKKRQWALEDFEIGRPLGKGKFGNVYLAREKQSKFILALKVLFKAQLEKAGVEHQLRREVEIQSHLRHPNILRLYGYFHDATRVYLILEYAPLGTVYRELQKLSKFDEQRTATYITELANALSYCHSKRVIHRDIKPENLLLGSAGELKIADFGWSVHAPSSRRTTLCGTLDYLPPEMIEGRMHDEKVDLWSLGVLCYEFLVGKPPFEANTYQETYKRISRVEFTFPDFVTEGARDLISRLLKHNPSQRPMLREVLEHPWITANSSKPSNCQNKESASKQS

Mus musculus [11] = assay: Upregulation of FABP3 gene expression in C57BL/6J mouse muscles at 15 to 150 mg/kg, po; assay type: functional, organism-based; details: Muscle tissue
L6 [12] = assay: Induction of AMPK-mediated ACC phosphorylation in rat L6 cells by Western blotting analysis; assay type: cell-based

Sequence of Cytochrome P450 2C9 (P11712 whole entry): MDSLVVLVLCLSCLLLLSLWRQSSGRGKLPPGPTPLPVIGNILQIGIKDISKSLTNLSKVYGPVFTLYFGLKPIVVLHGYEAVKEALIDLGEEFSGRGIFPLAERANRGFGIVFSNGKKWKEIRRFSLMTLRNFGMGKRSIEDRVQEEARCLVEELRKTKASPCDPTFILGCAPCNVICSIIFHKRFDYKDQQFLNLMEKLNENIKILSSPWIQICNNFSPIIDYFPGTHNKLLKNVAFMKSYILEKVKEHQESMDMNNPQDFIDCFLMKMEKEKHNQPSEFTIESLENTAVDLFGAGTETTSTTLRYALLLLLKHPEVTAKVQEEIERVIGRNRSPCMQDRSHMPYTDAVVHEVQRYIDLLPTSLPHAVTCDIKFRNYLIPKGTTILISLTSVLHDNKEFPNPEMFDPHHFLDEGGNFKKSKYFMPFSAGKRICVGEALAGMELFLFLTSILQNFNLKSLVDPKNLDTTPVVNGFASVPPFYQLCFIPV
Sequence of Serine/threonine-protein kinase MARK2 (Homo sapiens) (Q7KZI7 whole entry): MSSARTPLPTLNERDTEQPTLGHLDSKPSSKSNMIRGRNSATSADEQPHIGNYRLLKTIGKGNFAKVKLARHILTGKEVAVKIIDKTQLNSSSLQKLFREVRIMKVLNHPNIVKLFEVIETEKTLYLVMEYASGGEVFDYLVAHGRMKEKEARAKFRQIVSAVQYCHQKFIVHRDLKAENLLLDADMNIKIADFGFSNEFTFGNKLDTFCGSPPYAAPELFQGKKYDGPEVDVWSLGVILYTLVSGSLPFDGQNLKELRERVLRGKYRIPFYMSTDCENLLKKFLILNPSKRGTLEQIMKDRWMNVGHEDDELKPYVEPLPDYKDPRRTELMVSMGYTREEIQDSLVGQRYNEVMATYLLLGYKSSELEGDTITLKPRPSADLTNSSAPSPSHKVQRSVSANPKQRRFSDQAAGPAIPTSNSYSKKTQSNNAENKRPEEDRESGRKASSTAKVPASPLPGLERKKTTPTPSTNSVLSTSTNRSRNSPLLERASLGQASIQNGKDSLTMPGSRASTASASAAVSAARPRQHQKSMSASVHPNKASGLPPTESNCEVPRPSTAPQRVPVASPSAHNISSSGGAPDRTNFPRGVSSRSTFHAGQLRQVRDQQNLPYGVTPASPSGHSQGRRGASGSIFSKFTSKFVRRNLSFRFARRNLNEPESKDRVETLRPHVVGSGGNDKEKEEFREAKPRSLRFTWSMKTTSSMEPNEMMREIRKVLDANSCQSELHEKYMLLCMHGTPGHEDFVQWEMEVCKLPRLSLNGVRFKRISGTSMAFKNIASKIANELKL
Sequence of Cytochrome P450 2C19 (P33261 whole entry): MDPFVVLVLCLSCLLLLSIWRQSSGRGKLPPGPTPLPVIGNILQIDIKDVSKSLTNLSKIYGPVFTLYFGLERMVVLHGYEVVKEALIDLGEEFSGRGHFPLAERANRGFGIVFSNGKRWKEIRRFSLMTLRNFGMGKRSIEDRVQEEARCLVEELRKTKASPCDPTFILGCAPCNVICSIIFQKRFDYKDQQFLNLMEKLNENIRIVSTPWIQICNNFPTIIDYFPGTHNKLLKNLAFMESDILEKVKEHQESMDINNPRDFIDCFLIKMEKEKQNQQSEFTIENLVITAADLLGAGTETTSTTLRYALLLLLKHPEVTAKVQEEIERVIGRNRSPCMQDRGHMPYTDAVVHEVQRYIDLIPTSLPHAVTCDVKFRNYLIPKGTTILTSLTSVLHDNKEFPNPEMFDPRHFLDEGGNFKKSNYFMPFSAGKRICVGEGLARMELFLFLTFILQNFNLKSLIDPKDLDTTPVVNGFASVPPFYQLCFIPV

inhibition (INH) (Cytochrome P450 2C19): Not Active | inhibition (INH) (Cytochrome P450 1A2): Not Active | concentration at 4 h [2]: 3270 ng/mL | Drug metabolism [3]: Not Active | inhibition (INH) (Cytochrome P450 2C9): Not Active | AUC(0-inf) [6]: 29500 ng·h/mL | AUC(0-t) at 24 h [8]: 28900 ng·h/mL | Activity [9]: inactive | Activity [10]: inactive
Compound: O=C(O)c1cccc(CN2C(=O)/C(=C(\c3ccccc3)c3ccc(Cl)cc3)c3ccccc32)c1
Activity (Mus musculus [1]): Active | Activity (Mus musculus [4]): Active | Activity (L6 [5]): Dose-dependent effect | Activity (Mus musculus [7]): 0.52 mM | Activity (Mus musculus [11]): Active | Activity (L6 [12]): Dose-dependent effect

— ChEMBL document CHEMBL2384909, “Development of Novel Alkene Oxindole Derivatives As Orally Efficacious AMP-Activated Protein Kinase Activators” (ACS Med Chem Lett, 2013)
